Results: patent publication EP0431323A1, “Antitumor antibiotic BU-3983T” (priority 1989, dated 1991)
Like-named read-outs stand apart in the source and are kept apart here.

How the values were obtained:
[1] = test system: B16 melanoma; assay: In vivo antitumor activity in tumor-bearing mice, B16 melanoma (ip); settings: for Body weight change on day 5 / MST (Median survival time) / T/C: B16 melanoma ip, BDF₁ mice; for T/C: significant if T/C ≧ 125%
Procedure: (§1) In vivo antitumor activity of BU-3983T was examined using tumor-bearing mice. Male BDF₁ mice were intraperitoneally inoculated with 0.5 ml of 10% melanotic melanoma B16 brei, and female CDF₁ mice were intraperitoneally inoculated with 0.4 ml of diluted ascitic fluid containing 10⁶ lymphocytic leukemia P388 cells or 10⁵ lymphoid leukemia L1210 cells. Mitomycin C was used as a reference compound. Test compounds were intraperitoneally administered to the mice by the following treatment schedules: once a day on day 1 only (Q1D x 1), on days 1, 5 and 9 (Q4D x 3) or on days 1 to 9 (Q1D x 9). […]

[2] = Antimicrobial activity (no method given)
[3] = test system: DNA synthesis in B16-F10 melanoma cells; assay: Inhibition of macromolecule synthesis: DNA (3H-thymidine incorporation); assay type: cell-based, murine; settings: 4.5 hours + 30 minutes label
Procedure: (§3) B16-F10 cells (10⁵ cells/ml) were incubated with test materials at 37°C for 4.5 hours (for DNA synthesis) or 4 hours (for RNA and protein syntheses). Labelled precursor, ³H-thymidine, ¹⁴C-uridine or ³H-leucine was added to the culture and further incubated for 30 minutes (for DNA) or 60 minutes (for RNA and protein). After washing with chilled 5% trichloroacetic acid solution, the radioactivity incorporated into the acid-insoluble fraction of the tumor cells was determined by a liquid scintillation counter. Actinomycin D was used as a reference compound.

[4] = test system: RNA synthesis in B16-F10 melanoma cells; assay: Inhibition of macromolecule synthesis: RNA (14C-uridine incorporation); assay type: cell-based, murine; settings: 4 hours + 60 minutes label
Procedure: as §3

[5] = test system: B16-F10 (murine melanoma)
Procedure: (§2) BU-3983T was tested for in vitro cytotoxicity against murine and human cell lines and for in vivo antitumor activity in mice. B16-F10 (murine melanoma) and Moser (human colorectal carcinoma) cells were grown to the logarithmic phase in the enriched Eagle minimum essential medium supplemented with fetal calf serum (FCS, 10%) and kanamycin (60 µg/ml), and HCT-116 (human colon carcinoma) were in McCoy's 5A medium supplemented with FCS (10%), penicillin (100 U/ml) and streptomycin (100 µg/ml). B16-F10, Moser and HCT-116 cells were harvested and implanted into wells of a 96-well microtiter plate at the inoculum sizes of 1.5 x 10⁴, 3 x 10⁴ and 3 x 10⁴ cells/ml, respectively. They were incubated with test materials at 37°C in humidified atmosphere of 5% CO₂ and 95% air for 72 hours. The cytotoxicity against tumor cells was determined colorimetrically at 540 nm after staining viable cells.

[6] = test system: HCT-116 (human colon carcinoma); settings: HCT-116 cells, 72 hours
Procedure: as §2

[7] = test system: Moser (human colorectal carcinoma); settings: Moser cells, 72 hours
Procedure: as §2

[8] = test system: P388 leukemia; assay: In vivo antitumor activity in tumor-bearing mice, P388 leukemia (ip); settings: for Body weight change on day 4 / MST (Median survival time) / T/C: P388 leukemia ip, CDF₁ mice, Q1D x 1; for T/C: significant if T/C ≧ 125%
Procedure: as §1

[9] = test system: Protein synthesis in B16-F10 melanoma cells; assay: Inhibition of macromolecule synthesis: protein (3H-leucine incorporation); assay type: cell-based, murine
Procedure: as §3

[10] = test system: L1210 leukemia; assay: In vivo antitumor activity in tumor-bearing mice, L1210 leukemia (ip); settings: for Body weight change on day 4 / MST (Median survival time) / T/C: L1210 leukemia ip, CDF₁ mice, Q1D x 1; for T/C: significant if T/C ≧ 125%
Procedure: as §1

SMILES: CCC(C)CC(C)CC(C)/C=C(\C)C1OC(O)(C(C)(O)C(=O)NC2C(=O)N3NCCCC3C(=O)N(O)CC(=O)N(C)CC(=O)NCC(=O)N(C)CC(=O)OC2C(C)C)CCC1OC (centres unmarked) [BU-3983T]
- solubility (in acetonitrile, methanol, chloroform, dimethyl sulfoxide and dimethylformamide): readily soluble
- solubility (in n-butanol, ethanol and ethyl acetate): slightly soluble
- solubility (in n-hexane and water): practically insoluble
- Body weight change on day 5 ([1]; 0.031 mg/kg/day ip, Q1D x 9): +1.0 g
- MST (Median survival time) ([1]; 0.031 mg/kg/day ip, Q1D x 9): 16.0 days
- T/C ([1]; 0.031 mg/kg/day ip, Q1D x 9): 110%
- Body weight change on day 5 ([1]; 0.063 mg/kg/day ip, Q1D x 9): +1.0 g
- MST (Median survival time) ([1]; 0.063 mg/kg/day ip, Q1D x 9): 17.5 days
- T/C ([1]; 0.063 mg/kg/day ip, Q1D x 9): 121%
- Body weight change on day 5 ([1]; 0.063 mg/kg/day ip, Q4D x 3): +0.5 g
- MST (Median survival time) ([1]; 0.063 mg/kg/day ip, Q4D x 3): 14.0 days
- T/C ([1]; 0.063 mg/kg/day ip, Q4D x 3): 108%
- Body weight change on day 5 ([1]; 0.13 mg/kg/day ip, Q1D x 1): +0.5 g
- MST (Median survival time) ([1]; 0.13 mg/kg/day ip, Q1D x 1): 14.0 days
- T/C ([1]; 0.13 mg/kg/day ip, Q1D x 1): 108%
- Body weight change on day 5 ([1]; 0.13 mg/kg/day ip, Q1D x 9): -0.3 g
- MST (Median survival time) ([1]; 0.13 mg/kg/day ip, Q1D x 9): 19.0 days
- T/C ([1]; 0.13 mg/kg/day ip, Q1D x 9): 131*² %
- Body weight change on day 5 ([1]; 0.13 mg/kg/day ip, Q4D x 3): +0.0 g
- MST (Median survival time) ([1]; 0.13 mg/kg/day ip, Q4D x 3): 15.0 days
- T/C ([1]; 0.13 mg/kg/day ip, Q4D x 3): 115%
- Body weight change on day 5 ([1]; 0.25 mg/kg/day ip, Q1D x 1): 0.0 g
- MST (Median survival time) ([1]; 0.25 mg/kg/day ip, Q1D x 1): 17.0 days
- T/C ([1]; 0.25 mg/kg/day ip, Q1D x 1): 131*² %
- Body weight change on day 5 ([1]; 0.25 mg/kg/day ip, Q1D x 9): -1.0 g
- MST (Median survival time) ([1]; 0.25 mg/kg/day ip, Q1D x 9): 19.5 days
- T/C ([1]; 0.25 mg/kg/day ip, Q1D x 9): 138*² %
- Body weight change on day 5 ([1]; 0.25 mg/kg/day ip, Q4D x 3): 0.0 g
- MST (Median survival time) ([1]; 0.25 mg/kg/day ip, Q4D x 3): 16.0 days
- T/C ([1]; 0.25 mg/kg/day ip, Q4D x 3): 123%
- Body weight change on day 5 ([1]; 0.5 mg/kg/day ip, Q1D x 1): -1.0 g
- MST (Median survival time) ([1]; 0.5 mg/kg/day ip, Q1D x 1): 17.0 days
- T/C ([1]; 0.5 mg/kg/day ip, Q1D x 1): 131*² %
- Body weight change on day 5 ([1]; 0.5 mg/kg/day ip, Q1D x 9): -4.0 g
- MST (Median survival time) ([1]; 0.5 mg/kg/day ip, Q1D x 9): 20.0 days
- T/C ([1]; 0.5 mg/kg/day ip, Q1D x 9): 148*² %
- Body weight change on day 5 ([1]; 0.5 mg/kg/day ip, Q4D x 3): -0.5 g
- MST (Median survival time) ([1]; 0.5 mg/kg/day ip, Q4D x 3): 19.0 days
- T/C ([1]; 0.5 mg/kg/day ip, Q4D x 3): 146*² %
- Body weight change on day 5 ([1]; 1 mg/kg/day ip, Q1D x 1): -4.0 g
- MST (Median survival time) ([1]; 1 mg/kg/day ip, Q1D x 1): 16.5 days
- T/C ([1]; 1 mg/kg/day ip, Q1D x 1): 127*² %
- MST (Median survival time) ([1]; 1 mg/kg/day ip, Q1D x 9): Tox
- T/C ([1]; 1 mg/kg/day ip, Q1D x 9): Tox
- Body weight change on day 5 ([1]; 1 mg/kg/day ip, Q4D x 3): -2.3 g
- MST (Median survival time) ([1]; 1 mg/kg/day ip, Q4D x 3): 17.5 days
- T/C ([1]; 1 mg/kg/day ip, Q4D x 3): 135*² %
- Body weight change on day 5 ([1]; 2 mg/kg/day ip, Q1D x 1): -4.8 g
- MST (Median survival time) ([1]; 2 mg/kg/day ip, Q1D x 1): 21.0 days
- T/C ([1]; 2 mg/kg/day ip, Q1D x 1): 162*² %
- Body weight change on day 5 ([1]; 2 mg/kg/day ip, Q4D x 3): -4.0 g
- MST (Median survival time) ([1]; 2 mg/kg/day ip, Q4D x 3): 18.0 days
- T/C ([1]; 2 mg/kg/day ip, Q4D x 3): 138*² %
- Body weight change on day 5 ([1]; 4 mg/kg/day ip, Q1D x 1): -5.3 g
- MST (Median survival time) ([1]; 4 mg/kg/day ip, Q1D x 1): 19.0 days
- T/C ([1]; 4 mg/kg/day ip, Q1D x 1): 146*² %
- Body weight change on day 5 ([1]; 8 mg/kg/day ip, Q1D x 1): -5.3 g
- MST (Median survival time) ([1]; 8 mg/kg/day ip, Q1D x 1): 17.5 days
- T/C ([1]; 8 mg/kg/day ip, Q1D x 1): 135*² %
- maximum T/C ([1]; B16 melanoma, by various treatment schedules (Q1D x 1, Q4D x 3, Q1D x 9), ip): 146-162%
- antimicrobial activity [2]: weak
- IC₅₀ DNA [3]: 0.26 µg/mL
- IC₅₀ RNA [4]: 0.29 µg/mL
- IC₅₀ ([5]; B16-F10 cells, 72 hours): 0.004 µg/mL
- times more potent against B16-F10 than against HCT-116 ([5]; ratio of IC₅₀ values, B16-F10 vs HCT-116): 10 times
- times more potent against B16-F10 than against Moser ([5]; ratio of IC₅₀ values, B16-F10 vs Moser): 100 times
- IC₅₀ [6]: 0.04 µg/mL
- IC₅₀ [7]: 0.4 µg/mL
- Body weight change on day 4 ([8]; 0.25 mg/kg/day ip): +0.3 g
- MST (Median survival time) ([8]; 0.25 mg/kg/day ip): 11.0 days
- T/C ([8]; 0.25 mg/kg/day ip): 110%
- Body weight change on day 4 ([8]; 0.5 mg/kg/day ip): -0.5 g
- MST (Median survival time) ([8]; 0.5 mg/kg/day ip): 10.0 days
- T/C ([8]; 0.5 mg/kg/day ip): 100%
- Body weight change on day 4 ([8]; 1 mg/kg/day ip): -1.5 g
- MST (Median survival time) ([8]; 1 mg/kg/day ip): 10.0 days
- T/C ([8]; 1 mg/kg/day ip): 100%
- Body weight change on day 4 ([8]; 2 mg/kg/day ip): -2.0 g
- MST (Median survival time) ([8]; 2 mg/kg/day ip): 10.0 days
- T/C ([8]; 2 mg/kg/day ip): 100%
- Body weight change on day 4 ([8]; 4 mg/kg/day ip): -2.3 g
- MST (Median survival time) ([8]; 4 mg/kg/day ip): 11.0 days
- T/C ([8]; 4 mg/kg/day ip): 110%
- Body weight change on day 4 ([8]; 8 mg/kg/day ip): -2.5 g
- MST (Median survival time) ([8]; 8 mg/kg/day ip): 11.5 days
- T/C ([8]; 8 mg/kg/day ip): 115%
- prolongation of lifespan ([8]; P388 leukemia system, ip): no significant prolongation of lifespan
- IC₅₀ Protein ([9]; 4 hours + 60 minutes label): >1.0 µg/mL
- inhibition of protein synthesis ([9]; at 1.0 µg/ml): only weak inhibition
- Body weight change on day 4 ([10]; 0.25 mg/kg/day ip): +0.8 g
- MST (Median survival time) ([10]; 0.25 mg/kg/day ip): 8.0 days
- T/C ([10]; 0.25 mg/kg/day ip): 100%
- Body weight change on day 4 ([10]; 0.5 mg/kg/day ip): -0.5 g
- MST (Median survival time) ([10]; 0.5 mg/kg/day ip): 8.0 days
- T/C ([10]; 0.5 mg/kg/day ip): 100%
- Body weight change on day 4 ([10]; 1 mg/kg/day ip): -2.0 g
- MST (Median survival time) ([10]; 1 mg/kg/day ip): 8.0 days
- T/C ([10]; 1 mg/kg/day ip): 100%
- Body weight change on day 4 ([10]; 2 mg/kg/day ip): -2.0 g
- MST (Median survival time) ([10]; 2 mg/kg/day ip): 9.0 days
- T/C ([10]; 2 mg/kg/day ip): 113%
- Body weight change on day 4 ([10]; 4 mg/kg/day ip): -2.5 g
- MST (Median survival time) ([10]; 4 mg/kg/day ip): 9.5 days
- T/C ([10]; 4 mg/kg/day ip): 119%
- MST (Median survival time) ([10]; 8 mg/kg/day ip): Tox
- T/C ([10]; 8 mg/kg/day ip): Tox
- prolongation of lifespan ([10]; L1210 leukemia system, ip): no significant prolongation of lifespan
